Reference: patent publication US20090055945A1, “Method for Producing Nuclear-Transplanted Egg” (priority 2005, published 2009)

Assays:
[1] = test system: immortalized bovine mammary epithelial cells (MECL) or bovine fetal fibroblasts (BFF); details: MECL or BFF treated before nuclear transfer; Non-patent Document 2; cited from earlier work
[2] = test system: nuclear transfer oocytes (nuclei from cumulus cells in enucleated oocytes); test: Expanded blastocyst formation of nuclear transfer oocytes (cumulus cell nuclei); type: cell-based, mouse; details: 5 μM apicidin
Method: Production of cloned mice including production of nuclear transfer embryos was carried out according to the method as described in Non-patent Document 5. Briefly, pregnant mare serum gonadotrophin (PMSG) was first administered to 8-weeks-old female B6D2F1 (C57BL/6 XDBA/2) mice (Japan SLC) for superovulation treatment. Human choriogonadotropin (hCG) was administered after 48 hours. Oocytes were collected after 16 hours. Nuclei were removed from the collected unfertilized oocytes in the presence of 5 μg/ml of cytochalasin B using a micromanipulator (enucleation).
Next, cell membranes of cumulus cells from a B6D2F1 mouse as donor somatic cells suspended in a 1.2% polyvinylpyrrolidone (PVP) solution were destroyed using an injection pipette, and the nuclei were injected into the enucleated oocytes using a micromanipulator (nuclear transfer). A piezo drive apparatus (Prime Tech) was used to generate piezo-pulses for penetration of zona pellucida or cell membranes which is required for injection of nuclei.
The thus obtained nuclear transfer oocytes were cultured in a CO2 incubator at 37° C. for 30 minutes to 1 hour. The oocytes were then transferred to an oocyte activation solution (Ca^2+-free CZB medium supplemented with 5 mM strontium chloride (SrCl2) and 5 μg/ml of cytochalasin B (Non-patent Document 10)) containing 0.5, 5, 50 or 500 nM trichostatin A (hereinafter referred to as TSA) to artificially activate the oocytes and initiate the development. Activation of oocytes was confirmed 6 hours after the initiation of activation using pronuclei formation as an index. Activated nuclear transfer oocytes were transferred to KSOM medium (Specialty Media) containing TSA at the same concentration, and cultured for further 14 hours (for 20 hours after the initiation of activation) in the medium. For a control, dimethyl sulfoxide (DMSO), which was used for dissolving TSA, was used in place of TSA to produce the same concentration.
Then, the nuclear transfer embryos at the 2-cell stage were cultured in KSOM medium without TSA until 96 hours after the initiation of activation, and development into expanded blastocysts was observed. The development into expanded blastocyst was confirmed by culturing for 96 hours after the initiation of activation and then observing under a microscope one in which the volume of embryo was increased to result in expansion of the blastocyst and thinning of zona pellucida among blastocysts having blastocoels. 80 or more embryos were examined in each of the experimental groups of the respective concentrations.
The ratio of the developed blastocysts to the number of nuclear transfer oocytes used (blastocyst formation rate (%)) was determined. The ratio of the developed expanded blastocysts to the number of oocytes that initiated cleavage (i.e., developed into the 2-cell stage) among the reconstructed nuclear transfer oocytes (blastocyst formation rate (%)) was determined.
Nuclear transfer oocytes were produced by injecting nuclei from cumulus cells into enucleated oocytes according to the method as described in Example 1, cultured in KSOM medium containing TSA at a concentration of 5 nM for various periods of time (for 0, 24, 48 or 72 hour(s) from the initiation of activation), and then cultured in KSOM medium without TSA until 96 hours after the initiation of activation. Then, development into expanded blastocysts was observed and the blastocyst formation rate was determined. […]

[3] = test system: oocytes injected with mature sperm (ICSI); test: Paternal genome DNA methylation, mature sperm injection (ICSI); type: cell-based, mouse; details: 10 μM 5-azacytidine, 20 hours
Method: The oocytes injected with the nuclear domains of round spermatids obtained by ROSI were cultured for 20 hours in the presence of 20 ng/ml of demecolcine in a medium containing 10 μM 5-azacytidine (5-aza) or 500 nM TSA as an anti-methylation agent. Similarly, injection of mature sperms was carried out (ICSI (intracytoplasmic sperm injection)). Specifically, heads of sperms were separated from the tails by applying pulses to the head-tail junctions by means of a piezo-driven pipette (PrimeTech), and injected into oocytes. The oocytes were not subjected to activation in this case. […]
For quantitative analysis of pronuclear DNA methylation levels, fluorescence images were subjected to densitometric analysis using the program Image-J from the National Institute of Health (http://rsb.info.nih.gov/ij/). For each pronucleus, the relative intensity of methylation of the paternal genome was calculated as a percentage of the fluorescence intensity of the maternal genome. In Table 3, data with (b) and without (a) anti-methylation agent were statistically analyzed by Scheffe tests for multiple mean comparisons using the statistical program SPSS version 12.0 (SPSS Inc.). […]

[4] = test system: oocytes injected with nuclear domains of round spermatids (ROSI); test: Paternal genome DNA methylation, spermatid injection (ROSI); type: cell-based, mouse; details: Spermatid (ROSI); 10 μM 5-azacytidine, 20 hours
Method: The oocytes injected with the nuclear domains of round spermatids obtained by ROSI were cultured for 20 hours in the presence of 20 ng/ml of demecolcine in a medium containing 10 μM 5-azacytidine (5-aza) or 500 nM TSA as an anti-methylation agent. Similarly, injection of mature sperms was carried out (ICSI (intracytoplasmic sperm injection)). Specifically, heads of sperms were separated from the tails by applying pulses to the head-tail junctions by means of a piezo-driven pipette (PrimeTech), and injected into oocytes. The oocytes were not subjected to activation in this case.
The cultured oocytes injected with nuclei were fixed in PBS containing 4% paraformaldehyde at 4° C. overnight, washed in PBS containing 0.1% polyvinyl alcohol (PVA), and blocked in PBS containing 3% bovine serum albumin (BSA) and 0.2% Triton X-100 at 4° C. overnight. Subsequent steps were carried out at room temperature. The fixed oocytes injected with nuclei were permeabilized by treating with 0.2% Triton X-100 in PBS at room temperature. The oocytes were then treated with 2N HCl at room temperature for 50 minutes, neutralized in 100 mM Tris-HCl buffer (pH 8.0) (Non-patent Document 15), and extensively washed with PBS containing 1% BSA.
Next, incubation. with an anti-5-methylcytidine antibody (Eurogentec) in PBS containing 0.1% PVA was carried out for 2 to 3 hours. After extensively being washed, oocytes were stained with Alexa Flour-488 secondary antibody (Molecular Probes), stained with 5 μg/ml 4′,6′-diamidino-2-phenylindole (DAPI) for 30 minutes, and mounted using Vectashield (Vector Laboratory). The specimens were observed using Olympus BX51 microscope (Olympus). All images were captured with DP70 Olympus digital camera using Olympus Analysis software to apply colors to DAPI-stained DNA and merged images.
For quantitative analysis of pronuclear DNA methylation levels, fluorescence images were subjected to densitometric analysis using the program Image-J from the National Institute of Health (http://rsb.info.nih.gov/ij/). For each pronucleus, the relative intensity of methylation of the paternal genome was calculated as a percentage of the fluorescence intensity of the maternal genome. In Table 3, data with (b) and without (a) anti-methylation agent were statistically analyzed by Scheffe tests for multiple mean comparisons using the statistical program SPSS version 12.0 (SPSS Inc.). All percentile data were subjected to arcsine transformation prior to the statistical analysis.

CCCC(=O)[O-].[Na+] [sodium butyrate]
blastocyst development rate [1]: increased

CCC(=O)CCCCC[C@@H]1NC(=O)[C@H]2CCCCN2C(=O)[C@H]([C@@H](C)CC)NC(=O)[C@H](Cc2cn(OC)c3ccccc23)NC1=O [apicidin]
increase in blastocyst formation rate vs control [2]: about 2 fold
blastocyst formation rate ([2]; method of Example 1): 69.0%

Nc1ncn([C@@H]2O[C@H](CO)[C@@H](O)[C@H]2O)c(=O)n1 [5-aza, 5-azacytidine]
Ratio of methylation level of paternal genome to maternal genome (%) [3]: 17.5^b %
Ratio of methylation level of paternal genome to maternal genome (%) [4]: 54.9^b %
